# Tests used:
# Assay type in all cases: cell-based
# [1] = system: Trichomonas foetus (Br. M. Strain); assay: Anti-infective in vitro assay, inhibition of growth examined; details: Tritrichomonas foetus, read-out: Reference Compound, Concurrent (MIC)
# Method: (§1) In a preliminary investigations the potential usage of the M. citrifolia Noni fruit juice on bacterial species and various protozoan species, which are known to cause economic downfalls in humans and livestock industries were assessed.
# (§2) Method employed in this study have been adapted from the scientific literature to maximize reliability and reproducibility. Reference standards were run as an integral part of each assay to ensure the validity of the results obtained. Materials utilized are described in the following charts.
# [2] = system: Salmonella typhimurium (ATCC 13311); assay: Anti-infective in vitro assay, growth inhibition (turbidity); details: Salmonella typhimuium (ATCC 13311)
# Method: as §1, §2
# [3] = system: Actinomyces viscosus (ATCC 15987); assay: as above; details: ATCC15987, read-out: Reference Compound, Concurrent (MIC)
# Method: as §1, §2
compound,measurement,setting,value
Cc1ncc([N+](=O)[O-])n1CCO [Metronidazole],MIC,[1],3 µg/mL
Gentamicin,MIC,[2],0.3 µg/mL
CC1(C)S[C@@H]2[C@H](NC(=O)[C@H](N)c3ccccc3)C(=O)N2[C@H]1C(=O)O [Ampicillin],MIC,[3],0.03 µg/mL

# — patent US20090011057A1, “FORMULATIONS AND METHODS FOR INHIBITING ANAEROBES, GRAM NEGATIVE BACTERIA, PROTOZOA AND OTHER MICROBIAL GROWTH WITH MORINDA CITRIFOLIA L. ENHANCED FORMULATIONS” (priority 2007, published 2009)
